Laboratory results published in patent US20190231748A1, “COMPOSITION FOR VAGINA AND ANTIMICROBIAL AGENT COMBINATION FOR USE IN PREPARING COMPOSITION FOR VAGINA” (Shenzhen Eulikan Biotechnology Co., Ltd., priority 2016, published 2019).

Assays:
Format in all cases: cell-based
[1] = system: three strains of Escherichia coli isolated from the vaginal secretion of patients with vaginitis; assay: Growth in enrichment broth (turbidity after 24 hours), clinical strains
Excerpt: a. Experimental strains, three strains of Escherichia coli and three strains of Staphylococcus aureus, which were all isolated from the vaginal secretion of patients with vaginitis.
b. Enrichment broth, which contained 1 percent of yeast extract powder, 9 percent of sucrose, 0.025 percent of manganese sulfate (MnSO4.4H2O), 0.058 percent of magnesium sulfate (MgSO4.7H2O), and 0.9 percent of lactic acid, the pH value of the broth was adjusted to 4.8, and the enrichment broth was sterilized for later use;
(2). Experimental groups: the requirements for aseptic operation technique were strictly followed to prepare the sterile test tubes:
a. sodium benzoate group: each test tube contained 5 milliliters of enrichment broth, and was added in 0.05 percent (weight/volume) sodium benzoate;
b. 2-phenylethanol group: each test tube contained 5 milliliters of enrichment broth, and was added in 0.05 percent (weight/volume) of 2-phenylethanol;
c. sodium propionate group: each test tube contained 5 milliliters of enrichment broth, and was added in 0.25 percent (weight/volume) of sodium propionate;
d. “a group of the combinations of sodium benzoate and sodium propionate”: each test tube contained 5 milliliters of enrichment broth, and was added in 0.05 percent (weight/volume) of sodium benzoate and 0.25 percent (weight/volume) of sodium propionate;
e. “a group of the combinations of sodium benzoate and 2-phenylethanol”: each test tube contained 5 milliliters of enrichment broth, and was added in 0.05 percent (weight/volume) of sodium benzoate and 0.05 percent (weight/volume) of 2-phenylethanol;
f. “a group of the combinations of sodium propionate and 2-phenylethanol”: each test tube contained 5 milliliters of enrichment broth, and was added in 0.25 percent (weight/volume) of sodium propionate and 0.05 percent (weight/volume) of 2-phenylethanol;
g. “a group of the combinations of sodium benzoate, sodium propionate and 2-phenylethanol”: each test tube contained 5 milliliters of enrichment broth, and was added in 0.05 percent (weight/volume) of sodium benzoate, 0.25 percent (weight/volume) of sodium propionate, and 0.05 percent (weight/volume) of 2-phenylethanol;
h. positive control: one tube that contained 5 milliliters of enrichment broth without adding in any of the 2-phenylethanol, sodium benzoate, and sodium propionate, but inoculated the suspension of Escherichia coli or Staphylococcus aureus.
i. negative control: one tube that contained 5 milliliters of enrichment broth without adding in any of the 2-phenylethanol, sodium benzoate, and sodium propionate, and not inoculated the suspension of Escherichia coli or Staphylococcus aureus.
The requirements for aseptic operation technique were strictly followed to prepare the bacterial suspensions. The colonies of Escherichia coli and Staphylococcus aureus were diluted with physiological saline respectively to prepare bacterial suspension. The turbidities of the Escherichia coli suspension and the Staphylococcus aureus suspension were adjusted to 0.5 MCF (about 10^8 CFU/ml) by a turbidimeter. 1 milliliter of the 0.5 MCF bacterial suspensions were added into 9 milliliters of the enrichment broth respectively, so each bacterial solution was diluted for ten times to contain 10^7 CFU/ml of bacterial organisms.
The requirements for aseptic operation technique were strictly followed to take 100 microliters of the prepared bacterial suspensions respectively, and to add the bacterial suspensions into the aforesaid test tubes from a to h as well as positive control tube. No bacterial suspension was added into the negative control tube i.
The above tubes were cultured in a biochemical incubator at 37° C. for 24 hours, then turbidity changes of the test tube solutions were observed and recorded.
Remark: “+” means the growth of bacteria; “−” means no growth of bacteria.

Lactococcus lactis = assay: Gram-stained smear of co-culture gel, Gram-positive cocci (G+c); conditions: for Smear G^+c: cultivated 32 hours
Excerpt: (§1) 2.1 Experimental strains: one Lactococcus lactis strain and one Lactobacillus jensenii strain, both were clinical isolates.
(§2) The pH value was adjusted to 5.0.
(§3) 2.4 Experimental procedure: the test gel tubes containing different concentrations of antimicrobial agents, as shown in Tables 1 to 6 were inoculated with 100 microliters of Lactobacillus lactis suspension and 100 microliters of Lactobacillus jensenii suspension at the same time. The turbidities of both suspensions were 0.5 MCF. Then the tubes were cultivated at 37° C. and under 5 percent CO2 for 32 hours. Then the changes of the pH values of gels were tested. The gels were smeared, Gram stained, and microscopically examined for the morphology and quantity of bacteria.

[2] = system: Lactococcus lactis and Lactobacillus jensenii; assay: pH of test gel after co-culture of Lactococcus lactis and Lactobacillus jensenii; conditions: cultivated 32 hours
Excerpt: as §1, §2, §3

Lactobacillus jensenii = assay: Gram-stained smear of co-culture gel, Gram-positive rods (G+b); conditions: for Smear G^+b: cultivated 32 hours
Excerpt: as §1, §2, §3

With `OCCc1ccccc1` [2-phenylethanol] as the compound, how does the “could inhibit the growth of Escherichia coli (agent alone, words)” value ([1]; 0.05 percent (weight/volume) in enrichment broth pH 4.8, 37° C. 24 hours) read?
Its value is “no one of the three antimicrobial agents”.

What about the “Smear G^+c” value (Lactococcus lactis; 0.15 % in test gel) of the same compound?
The value was “G^+c+++”.

What about the “Smear G^+c” value (Lactococcus lactis; 0.2 % in test gel) of the same compound?
The value was “G^+c+++”.

What about the “Smear G^+c” value (Lactococcus lactis; 0.25 % in test gel) of the same compound?
The value was “G^+c+++”.

What about the “Smear G^+c” value (Lactococcus lactis; 0.3 % in test gel) of the same compound?
The value was “G^+c+++”.

What about the “Smear G^+c” value (Lactococcus lactis; 0.35 % in test gel) of the same compound?
The value was “G^+c+~+”.

What about the “inhibition effect on the growth of Lactococcus lactis” value (Lactococcus lactis; 0.35 to 0.45 percent) of the same compound?
The value was “stronger inhibition effect”.

What about the “Smear G^+c” value (Lactococcus lactis; 0.4 % in test gel) of the same compound?
Its value is “G^+c+”.

And the pH value ([2]; 0.15 % in test gel)?
Its pH value is less than 3.8.

What about the pH value ([2]; 0.2 % in test gel) of the same compound?
The pH value was less than 3.8.

And the pH value ([2]; 0.25 % in test gel)?
The pH value was less than 3.8.

What about the pH value ([2]; 0.3 % in test gel) of the same compound?
The pH value was less than 3.8.

And the pH value ([2]; 0.35 % in test gel)?
The pH value was 3.8-4.1.

And the pH value ([2]; 0.4 % in test gel)?
The pH value was 4.4.

And the pH value ([2]; 0.45 % in test gel)?
The pH value was 4.6.

And the pH value ([2]; 0.5 % in test gel)?
Its pH value is 4.8.

And the “Smear G^+b” value (Lactobacillus jensenii; 0.15 % in test gel)?
Its value is “G^+b+”.

And the “Smear G^+b” value (Lactobacillus jensenii; 0.2 % in test gel)?
Its value is “G^+b+”.

And the “Smear G^+b” value (Lactobacillus jensenii; 0.25 % in test gel)?
The value was “G^+b+”.

And the “Smear G^+b” value (Lactobacillus jensenii; 0.3 % in test gel)?
The value was “G^+b+”.

What about the “Smear G^+b” value (Lactobacillus jensenii; 0.35 % in test gel) of the same compound?
Its value is “G^+b+++”.

And the “inhibition effect on the growth of Lactobacillus” value (Lactobacillus jensenii; 0.35 to 0.45 percent)?
Its value is “weaker inhibition effect”.

And the “Smear G^+b” value (Lactobacillus jensenii; 0.4 % in test gel)?
The value was “G^+b++”.

What about the “Smear G^+b” value (Lactobacillus jensenii; 0.45 % in test gel) of the same compound?
Its value is “G^+b++”.

What about the “Smear G^+b” value (Lactobacillus jensenii; 0.5 % in test gel) of the same compound?
Its value is “G^+b+”.

Which “could inhibit the growth of Escherichia coli (agent alone, words)” value ([1]; 0.25 percent (weight/volume) in enrichment broth pH 4.8, 37° C. 24 hours) does the source give for `CCC(=O)[O-].[Na+]` [sodium propionate] here?
The value was “no one of the three antimicrobial agents”.

What about the “Smear G^+c” value (Lactococcus lactis; 0.1 % in test gel) of the same compound?
Its value is “G^+c+++”.

And the “Smear G^+c” value (Lactococcus lactis; 0.2 % in test gel)?
The value was “G^+c+++”.

And the “Smear G^+c” value (Lactococcus lactis; 0.3 % in test gel)?
Its value is “G^+c+++”.

What about the “Smear G^+c” value (Lactococcus lactis; 0.4 % in test gel) of the same compound?
The value was “G^+c+”.

And the “inhibition effect on the growth of Lactococcus lactis” value (Lactococcus lactis; 0.4 to 0.6 percent)?
Its value is “stronger inhibition effect”.

And the “Smear G^+c” value (Lactococcus lactis; 0.5 % in test gel)?
Its value is “G^+c+”.

What about the pH value ([2]; 0.1 % in test gel) of the same compound?
Its pH value is 3.8.

What about the pH value ([2]; 0.2 % in test gel) of the same compound?
Its pH value is 3.8.

What about the pH value ([2]; 0.3 % in test gel) of the same compound?
Its pH value is 3.8.

What about the pH value ([2]; 0.4 % in test gel) of the same compound?
The pH value was 4.4.

What about the pH value ([2]; 0.5 % in test gel) of the same compound?
The pH value was 4.4-4.6.

What about the pH value ([2]; 0.6 % in test gel) of the same compound?
The pH value was 4.6.

What about the pH value ([2]; 0.7 % in test gel) of the same compound?
Its pH value is 4.8.

What about the “Smear G^+b” value (Lactobacillus jensenii; 0.1 % in test gel) of the same compound?
Its value is “G^+b+”.

And the “Smear G^+b” value (Lactobacillus jensenii; 0.2 % in test gel)?
The value was “G^+b+”.

And the “Smear G^+b” value (Lactobacillus jensenii; 0.3 % in test gel)?
The value was “G^+b+”.

What about the “Smear G^+b” value (Lactobacillus jensenii; 0.4 % in test gel) of the same compound?
The value was “G^+b++”.

And the “inhibition effect on the growth of Lactobacillus” value (Lactobacillus jensenii; 0.4 to 0.6 percent)?
The value was “weaker inhibition effect”.

And the “Smear G^+b” value (Lactobacillus jensenii; 0.5 % in test gel)?
The value was “G^+b++”.

What about the “Smear G^+b” value (Lactobacillus jensenii; 0.6 % in test gel) of the same compound?
Its value is “G^+b++”.

What about the “Smear G^+b” value (Lactobacillus jensenii; 0.7 % in test gel) of the same compound?
Its value is “G^+b+”.
